Some test systems named below: Escherichia coli UB1005; Staphylococcus aureus 75; Escherichia coli 804; Escherichia coli 780; Candida parapsilosis; Bacillus subtilis DELTA.
Holding throughout (test): ≥ marks a high value that may be exact or a test limit, other limits are often not marked, values filed in µg/mL are converted to µM
Assay [1] concerns Pseudomonas aeruginosa H374.
Assay [2] has as its system Pseudomonas aeruginosa H744.
Assay [3] has as its system Salmonella enterica subsp. enterica serovar Typhimurium ATCC 14028s.
Assay [4] has as its system Pseudomonas aeruginosa H547.
Assay [5] deals with Pseudomonas aeruginosa Z61.
For assay [6], the system named is Pseudomonas aeruginosa K799.
The test system of assay [7] is Acinetobacter baumannii 9931.
Assay [8] deals with Acinetobacter baumannii 97830.
In assay [9] the test system is Klebsiella pneumoniae ATCC 700603.
In assay [10] the test system is Staphylococcus aureus ATCC 29213.
The test system of assay [11] is Staphylococcus epidermidis ATCC 12228.
The test system of assay [12] is Pseudomonas aeruginosa 50.
The test system of assay [13] is Staphylococcus aureus 113.
Assay [14] relates to Bacillus subtilis ATCC 23857.
Assay [15] deals with Pseudomonas aeruginosa 73.
The subject of assay [16] is Acinetobacter baumannii ATCC 19606.
Assay [17] has as its system Pseudomonas aeruginosa ATCC 27853.
Assay [18] concerns Pseudomonas aeruginosa ATCC 9027.
Assay [19] has as its system Escherichia coli DH5alpha.
Assay [20] deals with Zymomonas mobilis ATCC 10988.
Assay [21] has as its system Pseudomonas aeruginosa PAO1.
Assay [22] relates to Escherichia coli ATCC 25922.
The subject of assay [23] is Staphylococcus aureus ATCC 25923.
Assay [24] concerns Candida tropicalis KCTC 7221.
The test system of assay [25] is Candida albicans KCTC 7270.
For assay [26], the system named is Aspergillus fumigatus KCTC 6145.
The subject of assay [27] is Candida parapsilosis CCARM 14016.
Assay [28] has as its system Candida krusei CCARM 14017.
The subject of assay [29] is Aspergillus flavus KCTC 6905.
The subject of assay [30] is Trichosporon beigelii KCTC 7707.
Assay [31] has as its system Fusarium verticillioides KCTC 6149.

In brackets after ≈: the same amount, converted by molar mass. Several values for one entry are separate records, joined by “and”; a condition that tells them apart may be missing. Equal values may be shown once.

Broadly, the MIC is the lowest concentration found to suppress growth. On to `CC[C@H](C)[C@H](NC(=O)[C@H](CC(C)C)NC(=O)[C@@H]1CCCN1C(=O)[C@H](CCCCN)NC(=O)[C@H](C)NC(=O)[C@@H](NC(=O)[C@@H](NC(=O)[C@H](CC(C)C)NC(=O)[C@@H](NC(=O)[C@H](CO)NC(=O)[C@@H](NC(=O)[C@H](CCCCN)NC(=O)[C@H](C)NC(=O)[C@H](CO)NC(=O)[C@@H](NC(=O)[C@H](CC(C)C)NC(=O)[C@H](CC(C)C)NC(=O)[C@H](CCCCN)NC(=O)[C@@H](NC(=O)[C@H](Cc1ccccc1)NC(=O)[C@H](CO)NC(=O)[C@H](CCCCN)NC(=O)[C@H](CCCCN)NC(=O)[C@@H](N)CCCCN)[C@@H](C)CC)[C@@H](C)O)C(C)C)C(C)C)[C@@H](C)O)[C@@H](C)O)C(=O)N[C@@H](CO)C(=O)N[C@@H](CO)C(=O)O` [KKKSFIKLLTSAKVSVLTTAKPLISS], for which the MIC in assay [1] is 22.9 µM (≈ 64 µg/mL); in the assay on Escherichia coli UB1005, 11.5 µM (≈ 32 µg/mL); in assay [2], 22.9 µM (≈ 64 µg/mL); in assay [3], 22.9 µM (≈ 64 µg/mL); in assay [4], 22.9 µM (≈ 64 µg/mL); in [5], 22.9 µM (≈ 64 µg/mL). Also, the MIC in assay [6] was 22.9 µM (≈ 64 µg/mL).
Turning to `CC(C)[C@H](N)C(=O)N[C@@H](CCCN=C(N)N)C(=O)N[C@@H](Cc1c[nH]c2ccccc12)C(=O)N[C@@H](Cc1c[nH]c2ccccc12)C(=O)N[C@@H](Cc1c[nH]c2ccccc12)C(=O)N[C@@H](CCCN=C(N)N)C(=O)N[C@H](C(N)=O)C(C)C` [VRWWWRV], the MIC was at least 128 µM in assay [7]; at least 128 µM in [8]; 64 µM (≈ 69.5 µg/mL) in assay [9]; 32 µM (≈ 34.8 µg/mL) in assay [10]; 8 µM (≈ 8.69 µg/mL) in assay [11]; at least 64 µM in [12]. Moreover, the MIC in assay [13] is at least 32 µM; in [14], 8 µM (≈ 8.69 µg/mL); against Staphylococcus aureus 75 it was at least 32 µM; in the assay on Escherichia coli 804, at least 64 µM; in assay [15], at least 128 µM; in assay [16], 128 µM (≈ 139 µg/mL). The MIC is at least 64 µM in the assay with Escherichia coli 780, 64 µM (≈ 69.5 µg/mL) in [17] and 64 µM (≈ 69.5 µg/mL) in assay [18].
Take `CC[C@H](C)[C@H](NC(=O)[C@H](CC(C)C)NC(=O)[C@H](C)NC(=O)[C@@H]1CCCN1C(=O)[C@H](CC(C)C)NC(=O)CNC(=O)[C@@H](NC(=O)[C@@H](NC(=O)[C@H](CC(C)C)NC(=O)[C@@H](NC(=O)[C@H](CCCCN)NC(=O)[C@H](CO)NC(=O)CNC(=O)CNC(=O)[C@H](CCCCN)NC(=O)[C@@H](NC(=O)[C@H](CC(C)C)NC(=O)[C@H](CC(N)=O)NC(=O)[C@H](CCCCN)NC(=O)[C@@H](NC(=O)[C@H](Cc1ccccc1)NC(=O)[C@H](CO)NC(=O)[C@H](CCCCN)NC(=O)[C@H](Cc1c[nH]c2ccccc12)NC(=O)[C@@H](N)CCCCN)[C@@H](C)CC)[C@@H](C)O)[C@@H](C)CC)[C@@H](C)O)[C@@H](C)O)C(=O)N[C@@H](CO)C(=O)O` [KWKSFIKNLTKGGSKILTTGLPALIS]: the MIC is 2.85 µM (≈ 8 µg/mL) in assay [1]; 1.43 µM (≈ 4 µg/mL) in the assay with Escherichia coli UB1005; 5.71 µM (≈ 16 µg/mL) in assay [2]; 15.3 µM (≈ 43 µg/mL) in assay [3]; 11.4 µM (≈ 32 µg/mL) in assay [4]; 11.4 µM (≈ 32 µg/mL) in [5]. Also, the MIC in assay [6] stood at 22.8 µM (≈ 64 µg/mL).
On to `CC[C@H](C)[C@H](NC(=O)[C@H](CCCCN)NC(=O)[C@H](CC(C)C)NC(=O)[C@H](CC(C)C)NC(=O)CN)C(=O)N[C@H](C(=O)N[C@@H](CCCCN)C(=O)N[C@@H](CCCCN)C(=O)N[C@@H](CC(C)C)C(=O)N[C@@H](CC(C)C)C(N)=O)[C@@H](C)CC` [GLLKIIKKLL], for which the MIC was 6.15 µM (≈ 6.99 µg/mL) against Candida parapsilosis; at least 87.8 µM in assay [19]; 13.2 µM (≈ 15 µg/mL) in assay [20]; 6.15 µM (≈ 6.99 µg/mL) in the assay with Bacillus subtilis DELTA; 2.63 µM (≈ 3 µg/mL) in assay [21].
For the molecule `NCC(=O)N[C@@H](CCCN=C(N)N)C(=O)N[C@@H](Cc1c[nH]c2ccccc12)C(=O)N[C@@H](Cc1c[nH]c2ccccc12)C(=O)N[C@@H](Cc1c[nH]c2ccccc12)C(=O)N[C@@H](CCCN=C(N)N)C(=O)NCC(N)=O` [GRWWWRG], the MIC is at least 128 µM in [7]; at least 128 µM in [8]; above 128 µM in assay [22]; 64 µM and 128 µM in [23]; above 128 µM in [9]; 8 µM (≈ 8.02 µg/mL) in assay [10]. Besides, the MIC in assay [11] is 64 µM (≈ 64.1 µg/mL); in [12], at least 128 µM; in assay [13] it was at least 64 µM; in assay [14] it was 16 µM (≈ 16 µg/mL); in the assay on Staphylococcus aureus 75, at least 64 µM; against Escherichia coli 804, at least 128 µM. In addition, the MIC in [15] was at least 128 µM; in [16], above 128 µM; with Escherichia coli 780 it was at least 128 µM; in assay [17], above 128 µM; in assay [18], above 128 µM.
In the case of `CC[C@H](C)[C@H](NC(=O)CNC(=O)[C@H](CCC(N)=O)NC(=O)[C@H](C)NC(=O)[C@@H](NC(=O)[C@H](CCCCN)NC(=O)[C@H](CCCCN)NC(=O)[C@H](CC(C)C)NC(=O)[C@H](C)NC(=O)[C@H](CC(N)=O)NC(=O)[C@H](CC(C)C)NC(=O)CN)C(C)C)C(=O)N[C@@H](Cc1cnc[nH]1)C(=O)N[C@@H](CCC(=O)O)C(=O)N[C@@H](C)C(=O)N[C@@H](C)C(=O)N[C@@H](CCCCN)C(=O)N[C@@H](CC(C)C)C(=O)N[C@H](C(=O)N[C@@H](CC(N)=O)C(=O)N[C@@H](CC(N)=O)C(=O)N[C@@H](Cc1cnc[nH]1)C(=O)N[C@H](C(=O)N[C@@H](CCC(N)=O)C(N)=O)C(C)C)[C@@H](C)CC` [GLNALKKVAQGIHEAAKLINNHVQ], the MIC is 2 µM and 1 µM in assay [24]; 4 µM and 8 µM in [25]; ≥ 32 µM and 16 µM in [26]; at least 64 µM in assay [27]; 6 µM and 8 µM in [28]; ≥ 32 µM and 16 µM in assay [29]. Further, the MIC is 1.5 µM and 1 µM in assay [30]; at least 32 µM in assay [31].

Values taken from DBAASP.
